Data set [1] can be described thus: Dark toxicity against human MCF7 cells assessed as reduction in cell viability after 72 hrs by MTT assay. The format is cell-based.
Data set [2] relates to K562. Kind of data set: Phototoxic index, ratio of CC50 for human K562 cells under dark condition to EC50 for human K562 cells under UV light irradiated condition.
Data set [3] relates to MCF7. Kind of data set: Phototoxicity against human MCF7 cells assessed as reduction in cell viability preincubated for 30 mins followed by 1.25 J/cm2 UV light irradiation measured after 48 hrs by MTT assay. The format is functional, cell-based. The settings on record: MCF7, light or radiation study.
Data set [4] concerns Jurkat. Kind of data set: Phototoxicity against human Jurkat cells assessed as reduction in cell viability preincubated for 30 mins followed by 1.25 J/cm2 UV light irradiation measured after 48 hrs by MTT assay. The format is functional, cell-based. The following applies: light or radiation study.
In data set [5] the test system is K562. Kind of data set: Phototoxicity against human K562 cells assessed as reduction in cell viability preincubated for 30 mins followed by 1.25 J/cm2 UV light irradiation measured after 48 hrs by MTT assay. The format is functional, cell-based. The following applies: K562, light or radiation study.
Data set [6] relates to Jurkat. Kind of data set: Phototoxic index, ratio of CC50 for human Jurkat cells under dark condition to EC50 for human Jurkat cells under UV light irradiated condition.
Data set [7] concerns MCF7. Kind of data set: Phototoxic index, ratio of CC50 for human MCF7 cells under dark condition to EC50 for human MCF7 cells under UV light irradiated condition.
A short description of data set [8]: Dark toxicity against human Jurkat cells assessed as reduction in cell viability after 72 hrs by MTT assay. The format is cell-based.
A short description of data set [9]: Dark toxicity against human K562 cells assessed as reduction in cell viability after 72 hrs by MTT assay. The format is cell-based.

Bounds are passed on as bounds.

For the compound `CCOC(=O)c1cc2c(n1Cc1cccc(OC)c1)-c1[nH]c(=O)c(S(=O)(=O)c3ccccc3)cc1CCC2`, the CC50 at 72 h in data set [1], in [8] and in data set [9] was above 20 µM each time. Besides, the entries for the “Ratio CC50/EC50” value with K562 [2], in the data set on Jurkat [6] and with MCF7 [7] were above 42.55, above 83.33 and above 7.77, respectively. Moreover, the concentration for a half-maximal effect (EC50) in the data set on MCF7 [3] was 2.58 µM; with Jurkat [4], 0.24 µM; in the data set with K562 [5], 0.47 µM.

Regarding `CCOC(=O)c1cc2c(n1C)-c1[nH]c(=O)c(S(=O)(=O)c3ccccc3)cc1CCC2`, the CC50 at 72 h in data set [1], in data set [8] and in data set [9] was above 20 µM in each case. In addition, the “Ratio CC50/EC50” value in the data set on K562 [2] is recorded as above 1.87; with Jurkat [6] it was above 6.06; in the data set on MCF7 [7] it was above 20. Besides, the EC50 was determined as 1 µM with MCF7 [3], 3.3 µM in the data set on Jurkat [4] and 10.7 µM in the data set on K562 [5].

Consider `COc1ccc(Cn2ccc3c2-c2nc(OC)c(S(=O)(=O)c4ccccc4)cc2CCC3)cc1`, for which the CC50 at 72 h in data set [1], in [8] and in data set [9] was above 20 µM each time. Besides, the figures for the “Ratio CC50/EC50” value with K562 [2], in the data set on Jurkat [6] and in the data set on MCF7 [7] were above 3.53, above 16 and above 4.22, respectively. The figures for the EC50 with MCF7 [3], in the data set with Jurkat [4] and with K562 [5] were 4.74 µM, 1.25 µM and 5.67 µM, respectively.

In the case of `CCOC(=O)c1cc2c(n1Cc1ccccc1)-c1[nH]c(=O)c(S(=O)(=O)c3ccccc3)cc1CCC2`, the CC50 at 72 h in data set [1], in [8] and in data set [9] was above 20 µM in each case. In addition, the “Ratio CC50/EC50” value with K562 [2] is recorded as above 50; in the data set on Jurkat [6], above 66.67; in the data set on MCF7 [7] it was above 14.22. The EC50 amounted to 1.41 µM in the data set on MCF7 [3], 0.3 µM in the data set on Jurkat [4] and 0.4 µM in the data set with K562 [5].

`CCOC(=O)c1cc2c(n1Cc1ccccc1OC)-c1[nH]c(=O)c(S(=O)(=O)c3ccccc3)cc1CCC2`: the CC50 at 72 h in data set [1], in [8] and in data set [9] was above 20 µM throughout. Besides, the results for the “Ratio CC50/EC50” value in the data set with K562 [2], in the data set with Jurkat [6] and in the data set on MCF7 [7] were above 74.07, above 105.26 and above 21.36, respectively. For the same compound, the half-maximal effective concentration (EC50) with MCF7 [3] is 0.94 µM; with Jurkat [4], 0.19 µM; in the data set on K562 [5], 0.27 µM.

`CCOC(=O)c1cc2c(n1C)-c1nc(OC)c(S(=O)(=O)c3ccccc3)cc1CCC2`: the half-maximal cytotoxic concentration (CC50) at 72 h in data set [1], in [8] and in [9] was above 20 µM in each case. The figures for the “Ratio CC50/EC50” value in the data set with K562 [2], with Jurkat [6] and in the data set on MCF7 [7] were above 31.75, above 80 and above 11.76, respectively. In addition, the concentration for a half-maximal effect (EC50) is 1.7 µM in the data set with MCF7 [3], 0.25 µM in the data set with Jurkat [4] and 0.63 µM in the data set with K562 [5].

Take `Cn1ccc2c1-c1[nH]c(=O)c(S(=O)(=O)c3ccccc3)cc1CCC2`: the cytotoxic concentration (CC50) at 72 h in [1], in [8] and in [9] was above 20 µM throughout. The EC50 in the data set with MCF7 [3] is 2.96 µM; with Jurkat [4], above 20 µM; in the data set on K562 [5], above 20 µM. The “Ratio CC50/EC50” value with MCF7 [7] was above 6.77.

For `O=c1[nH]c2c(cc1S(=O)(=O)c1ccccc1)CCCc1ccn(Cc3ccccc3)c1-2`, the cytotoxic concentration (CC50) at 72 h in data set [1], in data set [8] and in [9] was above 20 µM in each case. Besides, the results for the “Ratio CC50/EC50” value in the data set with K562 [2], in the data set with Jurkat [6] and in the data set on MCF7 [7] were above 2.35, above 5.57 and above 7.36, respectively. For the same compound, the half-maximal effective concentration (EC50) in the data set on MCF7 [3] amounted to 2.72 µM; in the data set with Jurkat [4], 3.59 µM; in the data set with K562 [5], 8.5 µM.

With `COc1ccccc1Cn1ccc2c1-c1[nH]c(=O)c(S(=O)(=O)c3ccccc3)cc1CCC2`, the CC50 at 72 h in data set [1], in data set [8] and in data set [9] was above 20 µM throughout. The “Ratio CC50/EC50” value is above 2.6 in the data set with K562 [2], above 10.53 in the data set with Jurkat [6] and above 21.23 with MCF7 [7]. Moreover, the 50% effective concentration (EC50) with MCF7 [3] came out at 0.94 µM; in the data set with Jurkat [4], 1.9 µM; in the data set on K562 [5], 7.68 µM.
